Tests used:
[1] = test system: blood glucose levels; experiment: Decrease in % blood glucose levels after intra-gastric administration; type: in vivo, Male Sprague Dawley rats; settings: 50 IU/kg
[2] = rat, in vivo
Protocol: Male Sprague Dawley rats with a body mass of between 240 and 336 g were used as experimental in vivo model to investigate the absorption and efficacy enhancing capabilities of the current invention.
In this study, insulin was directly administered into the stomach, ileum or duodenum of the animals. […] Six animals were used for each group in the study. Rats were fasted 18 hours prior to drug administration but water was supplied ad libitum. […] The conditions under which the rats were bred and kept were 21° C. with a relative humidity of 55%, a light intensity of between 350-400 lux one meter above floor level with light cycles of 12 hours light and 12 dark and 18 air changes per minute.
Subcutaneous injection of insulin in one group was used to validate assaying procedures. The normal rat glucose and insulin profile was determined in a group that received only saline; this group acted as biological reference.
Cannulation of the artery carotis communis, ensured that sufficient blood volumes from the same rat at different time intervals could be obtained for analysis. Anaesthesia was induced by halothane and lasted for ±3 hours. All surgical procedures necessary for the cannulation of the carotis communis were carried out while the rats were under anaesthesia. […]

[3] = test system: blood glucose levels; experiment: % blood glucose decrease after intranasal administration; type: in vivo, Male Sprague Dawley rats; settings: for Tmax of % blood glucose decrease: sampling times in minutes
Protocol: The cannulation of the carotis communis artery for the collection of blood samples was also performed as described in Example 1 as was the determination of plasma levels and blood glucose levels.

[4] = test system: blood glucose levels; experiment: Decrease in % blood glucose levels after intra-ileal administration; type: in vivo, Male Sprague Dawley rats; settings: 50 IU/kg

Substance: Insulin in saline: Control: recombinant human insulin (Sigma-Aldrich) in saline solution without any enhancing agent
- AUC, decrease in the % of blood glucose levels [1]: 275.5
- Tmax, decrease in the % of blood glucose levels [1]: 30 min
- Tmax [2]: 5 min
- AUC of % blood glucose decrease ([3]; 8 IU/kg): 46
- Cmax of % blood glucose decrease ([3]; 8 IU/kg): 10.03%
- Tmax of % blood glucose decrease ([3]; 8 IU/kg): 15
- % blood glucose decrease ([3]; 8 IU/kg, time 0 min): 0%
- % blood glucose decrease ([3]; 8 IU/kg, time 5 min): −1.18%
- % blood glucose decrease ([3]; 8 IU/kg, time 10 min): 5.58%
- % blood glucose decrease ([3]; 8 IU/kg, time 15 min): 10.033%
- % blood glucose decrease ([3]; 8 IU/kg, time 30 min): 5.27%
- % blood glucose decrease ([3]; 8 IU/kg, time 60 min): 3.47%
- % blood glucose decrease ([3]; 8 IU/kg, time 120 min): 2.05%
- % blood glucose decrease ([3]; 8 IU/kg, time 180 min): −26.58%
- AUC of % blood glucose decrease ([3]; 12 IU/kg): 32.2
- Cmax of % blood glucose decrease ([3]; 12 IU/kg): 6.48%
- Tmax of % blood glucose decrease ([3]; 12 IU/kg): 5
- % blood glucose decrease ([3]; 12 IU/kg, time 0 min): 0%
- % blood glucose decrease ([3]; 12 IU/kg, time 5 min): 6.48%
- % blood glucose decrease ([3]; 12 IU/kg, time 10 min): −0.08%
- % blood glucose decrease ([3]; 12 IU/kg, time 15 min): −4.4%
- % blood glucose decrease ([3]; 12 IU/kg, time 30 min): −8.32%
- % blood glucose decrease ([3]; 12 IU/kg, time 60 min): −13.98%
- % blood glucose decrease ([3]; 12 IU/kg, time 120 min): −30.7%
- % blood glucose decrease ([3]; 12 IU/kg, time 180 min): −40.55%
- AUC, decrease in the % of blood glucose levels [4]: 13.81
- Tmax, decrease in the % of blood glucose levels [4]: 10 min
